Reference: PMC12564498, “Benzo[d]imidazole–Naphthalen-Arylmethanone Regioisomers as CB1 Ligands: Evaluation of Agonism via an Indirect Cytotoxicity-Based Approach” (International Journal of Molecular Sciences, 2025)
Values joined by “and” are separate entries in the source; they are usually repeats but may differ in a detail not shown here. Equal values may be shown once. Read-outs that look alike come from different tables or passages of the source.

Columns and labels:
[1] = target: T1, human cannabinoid CB1 receptor (Homo sapiens, UniProt P21554); assay: biochemical; type: binding; details: for Ki: Cheng–Prusoff from IC50, [3H]CP-55940 0.5 nM, read-out: CB1 Ki; for Ki / IC50: mean ± SEM n = 3; for IC50: [3H]CP-55940 0.5 nM, hCB1 HEK293-EBNA membranes, read-out: CB1 IC50; for inhibition at 10 µM: displacement of [3H]CP-55940 at 10 μM compound, read-out: CB1 Max Tested µM (% Displacement)
T1 construct: purchased Perkin Elmer Inc., Singapore Pte; Ltd. RBHCB1M400UA; host or cells: HEK293-EBNA cell membranes (overexpressing)

[2] = target: T2, human recombinant cannabinoid CB2 receptor (Homo sapiens, UniProt P34972); assay: CB2 radioligand displacement binding assay ([3H]CP-55940); details: for Ki: Cheng–Prusoff from IC50, [3H]CP-55940 0.5 nM; for Ki / IC50: mean ± SEM n = 3; for IC50: [3H]CP-55940 0.5 nM, hCB2 HEK293-EBNA membranes; for inhibition at 10 µM: displacement of [3H]CP-55940 at 10 μM compound, read-out: CB2 Max Tested µM (% Displacement)
T2 construct: purchased Perkin Elmer Inc., Singapore Pte; Ltd. RBXCB2M400UA; host or cells: HEK293-EBNA cell membranes (overexpressing)

HEK293 cells = assay: cells; details: for cytotoxicity at 0.1 µM: read-out: % Toxicity HEK293T, 0.1 μM, 72 h, MTT, n = 3; for cytotoxicity in HEK293: Figure 4, MTT; for IC50: read-out: IC50 toxicity HEK293T
Experimental: (§1) HEK293, U87MG, and HL-60 cell lines were seeded in a flat-bottom 96-well plate at a density of 10,000 cells per well. […] All compounds were incubated at 0.1 μM in 200 μL of culture medium supplemented with 10% FBS, in a flat-bottom 96-well plate at a density of 10,000 cells per well, at 37 °C for 72 h. Next, 20 μL of a 5 mg/mL MTT solution was added, and the cells were incubated at 37 °C for 4 h. Then, they were solubilized with 10% sodium dodecyl sulfate (SDS) in 0.1 mM HCl and incubated overnight at 37 °C. Formazan absorbance of each well was measured using the EPOCH microplate reader (Biotek, Winooski, VT, USA) at a wavelength of 570 nm. […]
(§2) promyelocytic leukemia cells (HL-60) were maintained at 5% CO2 and 37 °C in DMEM, EMEM and RPMI medium, respectively containing 10% Fetal Bovine Serum and 100 U/mL penicillin and 100 […]
(§3) Cell viability: ([MTT - (3-(4,5-dimethylthiazol-2-yl)-2,5-diphenyltetrazolium bromide) - formazan] HEK293, U87MG, and HL-60 cells were first quantified to determine the exact number to be used in […]
(§4) with the Beer-Lambert(1).
(§5) HEK293, U87MG and HL-60 cell lines were seed in a flat-bottom 96-wells plate at a density of 10,000 […]
(§6) concentrations (0.001 μM to 10 μM) in 200 μL of respective culture medium supplemented with 10% fetal bovine serum (FBS), at 37 °C for 72 hours. Subsequently, 20 μL of 5 mg/mL MTT solution was added to each well, and cells were incubated at 37 °C for 4 h. The resulting formazan crystals were then solubilized with 10% sodium dodecyl sulfate (SDS) in 0.1 mM HCl, followed by overnight incubation at 37 °C. Untreated cells were used as the control, 0.1% of dimethyl sulfoxide (DMSO) as the vehicle control, and 0.2 % of Triton X-100 as a positive control for cell death. IC 50 toxicity values […]
(§7) same conditions described in the previous paragraph. […]
(§8) determined IC50. The stimulation with both CB ligands was performed simultaneously.
(§9) All compounds were incubated at 0.1 μM in 200 μL of culture medium supplemented with 10% FBS, in a flat-bottom 96-well plate at a density of 10,000 cells per well, at 37°C for 72 hours. Next, 20 μL of a 5 mg/mL MTT solution was added, and the cells were incubated at 37°C for 4 hours. Then, they were solubilized with 10% sodium dodecyl sulfate (SDS) in 0.1 mM HCl and incubated overnight at 37°C. Formazan absorbance of each well was measured using the EPOCH microplate reader (Biotek, USA) at a wavelength of 570 nm.
(§10) [1]Mosorov, V., The Lambert-Beer law in time domain form and its application.

HL-60 cells = assay: cells; details: for cytotoxicity at 0.1 µM: read-out: % Toxicity HL-60; for cytotoxicity in HL-60: Figure 4, MTT
Experimental: as §1, §2, §3, §4, §5, §6, §7, §8, §9, §10

U87MG cells = assay: cells; details: 72 h; for cytotoxicity at 0.1 µM: read-out: % Toxicity U87MG, 0.1 μM, 72 h, MTT, n = 3; for cytotoxicity in U87MG: Figure 4, MTT, 0.001 μM to 10 μM
Experimental: as §1, §2, §3, §4, §5, §6, §7, §8, §9, §10

[3] = read-out: IC50 toxicity U87MG, MTT

T1 sequence (P21554 whole entry): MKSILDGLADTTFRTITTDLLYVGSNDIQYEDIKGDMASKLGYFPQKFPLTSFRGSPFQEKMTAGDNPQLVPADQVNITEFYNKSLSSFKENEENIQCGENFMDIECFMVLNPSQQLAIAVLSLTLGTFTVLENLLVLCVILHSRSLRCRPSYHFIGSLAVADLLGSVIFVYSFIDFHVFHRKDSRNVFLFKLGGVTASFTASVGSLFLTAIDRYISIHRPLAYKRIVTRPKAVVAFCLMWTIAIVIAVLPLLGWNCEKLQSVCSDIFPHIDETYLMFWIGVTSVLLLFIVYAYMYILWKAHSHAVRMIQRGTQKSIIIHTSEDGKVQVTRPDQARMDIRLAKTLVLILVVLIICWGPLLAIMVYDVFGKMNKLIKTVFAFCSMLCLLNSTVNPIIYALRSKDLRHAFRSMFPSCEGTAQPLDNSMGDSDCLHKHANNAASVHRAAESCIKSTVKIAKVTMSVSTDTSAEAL
T2 sequence (P34972 whole entry): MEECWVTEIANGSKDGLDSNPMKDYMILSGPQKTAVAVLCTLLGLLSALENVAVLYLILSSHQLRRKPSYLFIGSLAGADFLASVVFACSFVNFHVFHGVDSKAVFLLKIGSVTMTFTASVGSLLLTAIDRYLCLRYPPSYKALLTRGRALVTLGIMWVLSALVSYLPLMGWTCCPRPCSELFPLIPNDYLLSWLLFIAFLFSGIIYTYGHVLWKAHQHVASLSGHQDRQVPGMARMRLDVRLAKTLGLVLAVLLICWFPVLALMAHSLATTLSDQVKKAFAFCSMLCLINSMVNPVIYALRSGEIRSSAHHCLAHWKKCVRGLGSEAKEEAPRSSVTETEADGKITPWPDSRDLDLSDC

SMILES | Ki [1] | IC50 [1] [µM] | inhibition at 10 µM [1] [%] | Ki [2] | IC50 [2] [µM] | inhibition at 10 µM [2] [%] | cytotoxicity at 0.1 µM (HEK293 cells; Homo sapiens, HEK293, 72 h) [%] | cytotoxicity at 0.1 µM (HL-60 cells; Homo sapiens, HL-60, 72 h) [%] | cytotoxicity at 0.1 µM (U87MG cells; Homo sapiens, U-87 MG) [%] | cytotoxicity in HEK293 (HEK293 cells; 0.001 μM to 10 μM, 72 h) | cytotoxicity in HL-60 (HL-60 cells; 0.001 μM to 10 μM, 72 h) | cytotoxicity in U87MG (U87MG cells) | IC50 (U87MG cells; [3]) [nM] | other results
COc1cccc(-c2nc3ccc(Cl)cc3n2C(=O)c2cccc3ccccc23)c1 [4b′] | > 10000 nM | > 10 | 43 | ~4.46 µM and 4.46 µM | 6.76 ± 3.09 | 58 | 50 ± 11 | 52 | 39 ± 20 |  |  |  |  | % Toxicity HL-60 (HL-60 cells; 0.1 μM, 72 h, MTT, n = 3): 52 ± 13%
COc1ccc(C(=O)c2c(C)n(CCN3CCOCC3)c3cc(I)ccc23)cc1 [AM630, reference compound] |  |  |  |  |  |  |  |  |  | non-toxic | non-toxic | non-toxic | > 10000 | IC50 (HEK293 cells; MTT, 72 h, 0.001 μM to 10 μM): > 10 µM; IC50 (HL-60 cells; read-out: IC50 toxicity HL-60, MTT, 72 h, 0.001 μM to 10 μM): > 10000 nM
COc1cccc(-c2nc3cc(F)ccc3n2C(=O)c2cccc3ccccc23)c1 [Compound 5b, (5-fluoro-2-(3-methoxyphenyl)-1H-benzo[d]imidazol-1-yl)(naphthalen-1-yl)methanone] | ~1530 nM and 1530 nM | 6.23 ± 3.8 | > 55 | > 10 µM | > 10 | 45 | 75 ± 17 | 45 ± 17 | 25 ± 14 |  |  |  |  | 
Cc1ccc(-c2nc3cc(F)ccc3n2C(=O)c2cccc3ccccc23)o1 [Compound 5e, (5-fluoro-2-(5-methylfuran-2-yl)-1H-benzo[d]imidazol-1-yl)(naphthalen-1-yl)methanone] | 1820 ± 1640 nM | 7.4 ± 3.28 | > 55 | > 10 µM | > 10 | 38.5 | 55 ± 23 | 50 ± 19 | 39 ± 18 |  |  |  |  | 
Cc1c(C(=O)c2cccc3ccccc23)c2cccc3c2n1C(CN1CCOCC1)CO3 (centres unmarked) [WIN-55212-2, reference compound] |  |  |  |  |  |  |  |  | ~30 | harmlessness | exhibits cytotoxicity | exhibits cytotoxicity | 250 | displacement of specific radioligand binding (nonspecific binding definition), CB2 ([2]; 10 μM unlabeled WIN-55212-2, cannabinoid receptors): at least 84%; IC50 (HEK293 cells; Homo sapiens, HEK293, 72 h): > 10 µM; IC50 (HL-60 cells; Homo sapiens, HL-60, 72 h, read-out: IC50 toxicity HL-60): 1390 nM; IC50 (HL-60 cells; Homo sapiens, HL-60, read-out: IC50 HL-60 cells as printed in the figure picture): 1380 nM; IC50 (U87MG cells; Homo sapiens, U-87 MG, read-out: IC50 toxicity U87MG, MTT, 72 h): 200 nM
